pIC50: −log10 of the molar value.
Tests used:
Type in all cases: biochemical
11β-HSD1 [1] = molecular target: T1, 11β-HSD1 (Homo sapiens (Human), UniProt P28845); experiment: Biological Test Example 3: inhibition of purified recombinant 11β-HSD1 (SPA); conditions: purified recombinant 11β-HSD1 expressed in E. coli, read-out: IC50 Range
Protocol: The inhibition of purified 11β-HSD1 by compounds of Formula I is measured using a Scintillation Proximity Assay. All reactions are carried out at room temperature in 96 well flexible Microbeta reaction plates. First, 1 μL of a 0.1 mM solution of a compound of Formula I is mixed in DMSO diluted in half-log increments (8 points) starting at 1 μM final concentration. To this dot is added 50 μL of substrate solution (50 mM HEPES, pH 7.4, 100 mM KCl, 5 mM NaCl, 2 mM MgCl2 containing 20 μM ^3H cortisone, 1 mM NADPH). […] The reaction is then incubated for 90 minutes, and stopped by adding 50 μl of SPA bead mix (18-β-glycyrrhetinic acid, 10 μM final, 5 mg/ml protein A coated YSi SPA beads, and 1 ug/ml α-cortisol antibody (East Coast Biologics)). The plate is shaken for 120 minutes, and the radioactivity corresponding to ^3H cortisol is measured on a Wallac Microbeta.
Target sequence in this assay (P28845 whole entry, species assumed): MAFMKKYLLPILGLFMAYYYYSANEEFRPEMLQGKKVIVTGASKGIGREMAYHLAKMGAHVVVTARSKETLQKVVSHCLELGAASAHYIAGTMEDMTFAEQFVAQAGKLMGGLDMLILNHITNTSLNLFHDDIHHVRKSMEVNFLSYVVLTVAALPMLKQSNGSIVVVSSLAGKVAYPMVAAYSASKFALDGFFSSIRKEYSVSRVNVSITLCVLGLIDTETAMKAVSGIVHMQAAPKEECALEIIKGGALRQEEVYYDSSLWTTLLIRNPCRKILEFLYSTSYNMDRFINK

11β-HSD1 [2] = molecular target: T1, 11β-HSD1; experiment: Biological Test Example 4: HTRF assay of 11β-HSD1 in human liver microsomes; conditions: HTRF cortisol detection
Protocol: In vitro inhibition of 11β-HSD1 by test compounds is determined with HTRF (Homogeneous Time-Resolved Fluorescence) technology (cisbio international, France) detecting cortisol generated from […] by human liver microsomes. […] Cortisol generated in the reaction is then detected with a competitive immunoassay, involving two HTRF conjugates: cortisol linked to XL665 and anti-cortisol antibody labeled with Europium cryptate. The incubation period for detection reaction is typically 2 hours. […] The ratio of the two emission signals is then calculated (Em665*10000/Em615). […] Each assay also contains a calibration curve with cortisol to transform the fluorescent data into cortisol concentrations. Percent inhibition (% CTL) of each compound is determined relative to the carbenoxolone signal and IC50 curves are generated.
Target sequence in this assay (P28845 whole entry): as the sequence (P28845 whole entry, species assumed) above

11β-HSD1 [3] = molecular target: T1, 11β-HSD1; experiment: Biological Test Example 1: inhibition of a microsomal preparation of 11β-HSD1 (SPA); conditions: for inhibition at 0.1 µM: read-out: Average % inhibition at 100 nM, Biological Test Example 1
Target sequence in this assay (P28845 whole entry): as the sequence (P28845 whole entry, species assumed) above

[4] = Biological Test Example 1, microsomes from CHO cells overexpressing human 11β-HSD1, read-out: IC50 Range
[5] = Biological Test Example 1, read-out: IC50

`CCOC(=O)C1(Cc2ccccc2)CCCN(C(=O)OC2C3CC4CC(C3)CC2C4)C1` (stereo not drawn) [EXAMPLE 13, 1-(2-adamantyl) 3-ethyl 3-benzylpiperidine-1,3-dicarboxylate] gave a pIC50 (11β-HSD1 [1]) of over 7.00.

Work on `N#Cc1ccn([C@@H]2CCN(C(=O)OC3C4CC5CC3CC(O)(C5)C4)C2)c(=O)c1` (single isomer, unassigned; isomer 2) [Example 78 Isomer 2] yielded a pIC50 (11β-HSD1 [2]) of 5.93.

Molecule `O=C(OC1C2CC3CC(C2)CC1C3)N1CCC(c2ccccc2)C1` (stereo not drawn) [EXAMPLE 8, 2-adamantyl 3-phenylpyrrolidine-1-carboxylate] has a pIC50 (11β-HSD1 [1]) of over 7.00.

`O=C(OC1C2CC3CC(C2)CC1C3)N1CCC(Cc2ccccc2)C1` (stereo not drawn) [EXAMPLE 10, 2-adamantyl 3-benzylpyrrolidine-1-carboxylate] showed a pIC50 (11β-HSD1 [1]) of over 7.00.

Molecule `N#Cc1ccn([C@@H]2CCN(C(=O)OC3C4CC5CC3CC(O)(C5)C4)C2)c(=O)c1` (single isomer, unassigned; isomer 1) [Example 78 Isomer 1] has a pIC50 (11β-HSD1 [2]) of under 5.00.

Molecule `O=C(OC1C2CC3CC(C2)CC1C3)N1CCC(N2C(=O)Cc3ccccc32)CC1` (stereo not drawn) [EXAMPLE 27, 2-adamantyl 4-(2-oxoindolin-1-yl)piperidine-1-carboxylate] has a pIC50 (11β-HSD1 [1]) of over 7.00.

Work on `N#Cc1ccc(=O)n([C@@H]2CCN(C(=O)OC3C4CC5CC3CC(O)(C5)C4)C2)c1` (stereo partly drawn) [Example 77, (R)-3-(5-Cyano-2-oxo-2H-pyridin-1-yl)-pyrrolidine-1-carboxylic acid 5-hydroxy-adamantan-2-yl ester] yielded a pIC50 (11β-HSD1 [2]) of under 5.00.

`O=C(OC1C2CC3CC(C2)CC1C3)N1CCCC1c1ccccc1` (stereo not drawn) [EXAMPLE 7, 2-adamantyl 2-phenylpyrrolidine-1-carboxylate] gave a pIC50 (11β-HSD1 [1]) of over 7.00.

For `N#Cc1ccnc(O[C@@H]2CCN(C(=O)OC3C4CC5CC3CC(O)(C5)C4)C2)c1` (stereo partly drawn) [Example 79, (R)-3-(4-Cyano-hyridin-2-yloxy)-pyrrolidine-1-carboxylic acid 5-hydroxy-adamantan-2-yl ester], the pIC50 (11β-HSD1 [2]) was under 5.00.

`Cc1ccccc1C1(CC(=O)O)CCN(C(=O)OC2C3CC4CC(C3)CC2C4)CC1` (stereo not drawn) [EXAMPLE 12, 2-(1-(2-adamantyloxycarbonyl)-4-o-tolylpiperidin-4-yl)acetic acid] was tested, and the pIC50 (11β-HSD1 [1]) was 6.00 to 7.00.

Molecule `O=C(OC1C2CC3CC(C2)CC1C3)N1CCCC1Cc1ccccc1` (stereo not drawn) [EXAMPLE 9, 2-adamantyl 2-benzylpyrrolidine-1-carboxylate] has a pIC50 (11β-HSD1 [1]) of over 7.00.

With `NC(=O)C12CC3CC(C1)C(OC(=O)N1CCC(c4ncc(F)cn4)C1)C(C3)C2` (single isomer, unassigned) [EXAMPLE 41 Isomer 1, 1-carbamoyl-4-adamantyl 3-(5-fluoropyrimidin-2-yl)pyrrolidine-1-carboxylate] the “Average % inhibition at 100 nM” value (11β-HSD1 [3]; Biological Test Example 1, 100 nM compound) was 92.3%.

`Cn1c(=O)n([C@@H]2CCN(C(=O)O[C@H]3C4CC5CC3C[C@](C(N)=O)(C5)C4)C2)c2ccccc21` [EXAMPLE 62, (R)-trans-1-carbamoyl-4-adamantyl 3-(3-methyl-2-oxo-2,3-dihydro-1H-benzo[d]imidazol-1-yl)pyrrolidine-1-carboxylate] gave a pIC50 (11β-HSD1 [3]; [4]) of over 7.00, a pIC50 (11β-HSD1 [3]; [5]) of 8.51 and an inhibition at 0.1 µM (11β-HSD1 [3]; 100 nM compound) of 92.7%.

`NC(=O)[C@]12CC3CC(C1)[C@@H](OC(=O)N1CCC[C@@H]1c1nc(-c4cc[nH]c(=O)c4)cs1)C(C3)C2` [EXAMPLE 54, (R)-trans-1-carbamoyl-4-adamantyl 2-(4-(2-oxo-1,2-dihydropyridin-4-yl)thiazol-2-yl)pyrrolidine-1-carboxylate] was tested, and the pIC50 (11β-HSD1 [3]; [4]) was over 7.00, the pIC50 (11β-HSD1 [3]; [5]) was 8.57 and the inhibition at 0.1 µM (11β-HSD1 [3]; 100 nM compound) was 95.4%.

Source: patent US9163012B2, “Carbamate and urea inhibitors of 11β-hydroxysteroid dehydrogenase 1” (Vitae Pharmaceuticals, Inc., priority 2009, dated 2015)
